In article PMC9606171, “Synthetic PPAR Agonist DTMB Alleviates Alzheimer’s Disease Pathology by Inhibition of Chronic Microglial Inflammation in 5xFAD Mice” (Neurotherapeutics, 2022):

Legend:
5xFAD mice = experiment: Soluble/insoluble Aβ extraction, western blot and filter-trap assay; format: in vivo; details: 10 mg/kg orally, 3 months
Protocol: DTMB was synthesized from Daejung Chemicals (Korea) and was dissolved in dimethyl sulfoxide (Sigma Aldrich, St. Louis, MO, USA) for cell-based experiments. To evaluate the effects of DTMB on 5xFAD mice, DTMB (10 mg/kg) and vehicle (1% carboxymethylcellulose and 10% DMSO) were orally administrated to four groups (wild-type, wild-type + DTMB, 5xFAD, and 5xFAD + DTMB) with a 6 day per week for 3 months.
To investigate soluble and insoluble Aβ components, two extraction steps were performed. Left hemisphere samples were homogenized in cold Tris-buffered saline (TBS consisting of 50 mM Tris-pH 7.5 and 150 mM NaCl) with a protease inhibitor cocktail (Thermo Fisher Scientific, Waltham, MO, USA) at a concentration of 100 mg/mL. After centrifugation at 15,000 rpm for 1 h at 4 °C, the supernatant of the samples was used to conduct western blotting. Insoluble protein was extracted from the pellet by dissolving in 5 M guanidine buffer (5 M guanidine HCl and 150 mM NaCl-pH 7.5). Soluble and insoluble protein samples were stored at −80 °C.
The insoluble fraction of protein lysates in 5xFAD mice was diluted in 1% SDS-PBS and boiled at 95 °C for 5 min. The membrane was pre-equilibrated with 1 × TBS. A dot blotter apparatus (Bio-Rad Laboratories, Hercules, CA, USA) was used for sample application, and 6e10 antibody was used to detect Aβ contents from brain lysates of 5xFAD mice treated with DTMB. […]

BV2 = experiment: Cell viability assay (MTT), BV2; format: cell-based, mouse; details: 48 h
Protocol: Cell viability was measured by chromogenic assay involving the biological reduction of 3-(4,5-dimethyl-thiazol-2-yl)-2,5-diphenyltetrazoliumbromide (MTT) to formazan in living cells. Briefly, cells were seeded in 96-well plates in a final volume of 100 μL. After 24 h, the culture media were replaced with fresh media containing DTMB compounds, and the cells were cultured for another 48 h. Next, MTT (5 mg/mL in PBS) was added to the culture medium. The cells were incubated for 1 h in the dark at 37 °C, and the supernatant was then removed from the well. Total MTT solvent (4 mM HCl and 0.1% Nonidet P-40, both in isopropanol) was added to dissolve the formazan crystal, and absorbance was measured at 570 nm using a microplate reader Infinite 200 Pro NanoQuant microplate reader (TECAN, Switzerland).

BV2 microglia cells = experiment: ELISA of proinflammatory cytokines, BV2 microglia cells; format: cell-based, mouse; details: LPS or pre-aggregated human Aβ1-42, 24 h
Protocol: We measured cytokine level (TNF-α, IL-1β, and IL-6) in the media of LPS (1 μg/mL) and human Aβ1-42 (5 μg/mL)-treated BV2 microglia cells and primary microglia. Human Aβ1-42 (AnaSpec, Fremont, CA, USA) were pre-aggregated in the incubator for 24 h before the treatment to the cells. BV2 cells and primary microglia cells were seeded on 12-well plates (SPL) at a density of 1 × 10^5 cells/well cultured in 1 mL of complete media. After 12 h, LPS or human Aβ1-42 were treated to cells and were further incubated for 24 h with DTMB. ELISA experiments were conducted by using mouse TNF-α ELISA kit (Invitrogen, BMS607-3TEN), mouse IL-1β ELISA kit (Invitrogen, BMS6002), and mouse IL-6 ELISA kit (Invitrogen, BMS603-2) according to the manufacturer’s instruction.

primary microglia = experiment: Quantitative PCR of NF-κB target genes in primary microglia; format: cell-based, mice
Protocol: Primary microglia culture was conducted as described in a previous study. Mice at postnatal day 3 mice were used for the preparation of primary microglia. Newborn mice pups were anesthetized in ice and then sacrificed. Isolated cortex and hippocampus were collected after removing the meninges. Brain tissues were dissociated by incubating in HBSS (Gibco, Gaithersburg, MD, USA) with trypsin (2.5%) for 15 min. Cell homogenates were then incubated in M-CSF (20 ng/mL, R&D Systems) supplemented with DMEM-F12 medium with 10% fetal bovine serum, 10% horse serum, 1% GlutaMAX (Gibco, MD, USA), and 1% penicillin/streptomycin (Welgene, Korea). After 10 days, microglia were purified through shaking at 260 rpm for 2 h.
Total RNA was isolated using TRI Reagent (Molecular Research Center, Cincinnati, OH, USA). RNA was reverse transcribed using the ImProm-II™ Reverse Transcription System (Promega) according to the manufacturer’s instructions. For detection and quantification, a StepOnePlus Real-Time PCR System (Applied Biosystems, Foster City, CA, USA) was used with FastStart Universal SYBR Green Master (Roche, Basel, Switzerland). Real-time qPCR data were analyzed using the comparative CT method. Sample sizes were 10–15 mice per group.

PPARγ = molecular target: T1, PPARγ (Homo sapiens, UniProt P37231); experiment: Gal4-transactivation luciferase assay in HEK293A cells, PPARγ LBD; format: cell-based
T1 construct: pcDNA5-GAL4-PPAR LBD, pG5-luc, and Rluc vector (as control) were transfected into HEK293A cells; expressed in transfected cells; host or cells: HEK293A
T1 sequence (P37231 238-503 limits assumed): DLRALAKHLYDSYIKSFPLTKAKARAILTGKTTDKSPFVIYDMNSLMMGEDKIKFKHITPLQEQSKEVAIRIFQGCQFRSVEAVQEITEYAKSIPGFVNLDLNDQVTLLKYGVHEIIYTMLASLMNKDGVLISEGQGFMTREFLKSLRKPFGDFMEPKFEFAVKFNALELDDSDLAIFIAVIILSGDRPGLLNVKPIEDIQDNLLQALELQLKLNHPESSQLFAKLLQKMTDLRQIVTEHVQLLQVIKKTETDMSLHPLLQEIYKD
Protocol: HEK293A cells were transfected with the GAL4-reporter plasmids and pGL4.74 (Promega, Madison, WI, USA) as an internal standard through electroporation using a Neon Transfection System (Invitrogen, Carlsbad, CA, USA). All vector materials were provided by Professor Yuichiro Kanno at Toho University. Cells were treated with DTMB and each positive control compound for 24 h after overnight incubation. Cells were then harvested and resuspended in luciferase lysis buffer (Promega), followed by incubation on ice for 10 min. Cell debris was removed by centrifugation at 20,000 × g at 4 °C for 10 min, and the supernatants were used for luciferase assay. Using a dual-luciferase reporter assay system (Promega), luciferase activities were measured according to the manufacturer’s instructions. Experimental firefly luciferase activities were normalized against those of Renilla luciferase.

Aβ aggregates in the insoluble fraction (5xFAD mice; 5xFAD mice brain lysates): decreased
relative luciferase activity (PPARγ; HEK293A, 24 h, various concentrations): increased luciferase activity
PPARγ transactivation (luciferase reporter activity) compared to positive control (PPARγ; versus positive control): lower than the positive controls
Compound: COc1ccc(-c2cc(=O)oc3c(C)c(OC(=O)[C@H](Cc4c[nH]c5ccccc45)NC(=O)OC(C)(C)C)ccc23)cc1 [DTMB]
amyloid beta monomer (5xFAD mice; 5xFAD mice brain): not decreased
cytotoxicity (MTT) (BV2): no cytotoxicity
level of cytokines (TNF-α, IL-1β, IL-6) induced by inflammatory signals (BV2 microglia cells): dramatically reduced
mRNA levels of NFκB (primary microglia): no change
expression of NF-κB target genes Il-6, Il-1β, and Inos (primary microglia; primary microglia, mRNA): decreased
expression of anti-inflammatory marker (Arg-1) (primary microglia; primary microglia, mRNA): induced
